In patent publication US12258342B2, “Class of DNA gyrase and/or topoisomerase IV inhibitors with activity against gram-positive and gram-negative bacteria” (Univerza v Ljubljani, priority 2018, dated 2025):
In brackets after ≈: the same amount, converted by molar mass.

Key:
E. coli DNA gyrase = E. coli DNA gyrase (Escherichia coli (strain K12), UniProt P0AES6); experiment: DNA gyrase inhibition assay (Inspiralis, streptavidin-coated plates); type: biochemical
Protocol: Inhibitory activities for compounds of the present invention were determined on E. coli and S. aureus DNA gyrase and topoisomerase IV in an assay from Inspiralis on streptavidin-coated 96-well microtiter plates from Thermo scientific Pierce. […] After washing off the unbound oligonucleotide, the enzyme test was performed. […] Reaction solutions were incubated at 37° C. for 30 min. After that, the TF buffer (50 mM NaOAc with pH 5.0, 50 mM NaCl and 50 mM MgCl2) was added to terminate the enzymatic reaction. After additional incubation for 30 min at rt, during which biotin-oligonucleotide-plasmid triplex was formed, the unbound plasmid was washed off using TF buffer and SybrGOLD in T10 buffer (10 mM Tris HCl with pH 8.0 and 1 mM EDTA) was added. […] GraphPad Prism 6.0 software was used to calculate the IC50 values. The result is given as the average value of three independent measurements. […] Chemoth.

S. aureus ATCC 29213 = experiment: Microbroth dilution MIC (CLSI); settings: Staphylococcus aureus, ATCC29213, read-out: MIC (μg/mL) S. aureus ATCC 29213
E. faecium ATCC 35667 = experiment: Microbroth dilution MIC (CLSI); settings: Enterococcus faecium, ATCC35667, read-out: MIC (μg/mL) E. faecium ATCC 35667
E. faecalis ATCC 29212 = experiment: Microbroth dilution MIC (CLSI); settings: Enterococcus faecalis, ATCC29212, read-out: MIC (μg/mL) E. faecalis ATCC 29212
E. coli ATCC 25922 = experiment: Microbroth dilution MIC (CLSI); settings: Escherichia coli, ATCC25922, read-out: MIC (μg/mL) E. coli ATCC 25922

Row | SMILES | IC50 (E. coli DNA gyrase) | MIC (S. aureus ATCC 29213) | MIC (E. faecium ATCC 35667) | MIC (E. faecalis ATCC 29212) | MIC (E. coli ATCC 25922)
1 | O=C(O)c1ccc2nc(NC(=O)c3cc(Br)c(Br)[nH]3)sc2c1 [Example 2, 2-(4,5-dibromo-1H-pyrrole-2-carboxamido)benzo[d]thiazole-6-carboxylic acid] | 12 ± 7 nM | > 64 µg/mL | 5.56 µg/mL (≈ 12.5 µM) | 2.78 µg/mL (≈ 6.25 µM) | > 64 µg/mL
2 | O=C(O)c1ccc2nc(NC(=O)c3cc(Cl)c(Cl)[nH]3)sc2c1 [Example 3, 2-(4,5-dichloro-1H-pyrrole-2-carboxamido)benzo[d]thiazole-6-carboxylic acid] | 19 ± 1 nM | > 64 µg/mL | 17.8 µg/mL (≈ 50 µM) | 8.9 µg/mL (≈ 25 µM) | > 64 µg/mL
3 | Cc1[nH]c(C(=O)Nc2nc3cc(C(=O)O)ccc3s2)c(Cl)c1Cl [Example 4, 2-(3,4-dichloro-5-methyl-1H-pyrrole-2-carboxamido)benzo[d]thiazole-5-carboxylic acid] | 830 ± 150 nM | > 64 µg/mL | > 64 µg/mL | > 64 µg/mL | > 64 µg/mL
4 | Cc1[nH]c(C(=O)Nc2nc3c(F)cc(C(=O)O)cc3s2)c(Cl)c1Cl [Example 5, 2-(3,4-dichloro-5-methyl-1H-pyrrole-2-carboxamido)-4-fluorobenzo[d]thiazole-6-carboxylic acid] | < 5 nM | 1 µg/mL (≈ 2.58 µM) | 0.61 µg/mL (≈ 1.57 µM) | 0.0625 µg/mL (≈ 0.161 µM) | 16 µg/mL (≈ 41.2 µM)
5 | O=C(O)c1cc(O)c2nc(NC(=O)c3cc(Br)c(Br)[nH]3)sc2c1 [Example 6, 2-(4,5-dibromo-1H-pyrrole-2-carboxamido)-4-hydroxybenzo[d]thiazole-6-carboxylic acid] | 46 ± 33 nM | > 64 µg/mL | > 64 µg/mL | 32 µg/mL (≈ 69.4 µM) | > 64 µg/mL
6 | Cc1[nH]c(C(=O)Nc2nc3c(O)cc(C(=O)O)cc3s2)c(Cl)c1Cl [Example 7, 2-(3,4-dichloro-5-methyl-1H-pyrrole-2-carboxamido)-4-hydroxybenzo[d]thiazole-6-carboxylic acid] | < 5 nM | 16 µg/mL (≈ 41.4 µM) | 1.21 µg/mL (≈ 3.13 µM) | 2 µg/mL (≈ 5.18 µM) | > 64 µg/mL
7 | COc1cc(C(=O)O)cc2sc(NC(=O)c3[nH]c(C)c(Cl)c3Cl)nc12 [Example 8, 2-(3,4-dichloro-5-methyl-1H-pyrrole-2-carboxamido)-4-methoxybenzo[d]thiazole-6-carboxylic acid] | 7.6 ± 3.4 nM | 2 µg/mL (≈ 5 µM) | 1.25 µg/mL (≈ 3.12 µM) | 0.25 µg/mL (≈ 0.625 µM) | 64 µg/mL (≈ 160 µM)
8 | Cc1[nH]c(C(=O)Nc2nc3c(OCCN)cc(C(=O)O)cc3s2)c(Cl)c1Cl.Cl [Example 11, 2-((6-carboxy-2-(3,4-dichloro-5-methyl-1H-pyrrole-2-carboxamido)benzo[d]thiazol-4-yl)oxy)ethan-1-aminium chloride] | < 5 nM | > 64 µg/mL | > 64 µg/mL | > 64 µg/mL | > 64 µg/mL
9 | Cc1[nH]c(C(=O)Nc2nc3c(OCCN4CCOCC4)cc(C(=O)NCC#N)cc3s2)c(Cl)c1Cl.Cl [Example 25, 4-(2-((6-((cyanomethyl)carbamoyl)-2-(3,4-dichloro-5-methyl-1H-pyrrole-2-carboxamido)benzo[d]thiazol-4-yl)oxy)ethyl)morpholin-4-ium chloride] | < 5 nM | > 64 µg/mL |  | > 64 µg/mL | > 64 µg/mL
10 | Cc1[nH]c(C(=O)Nc2nc3ccc(C(=O)NCC#N)cc3s2)c(Cl)c1Cl [Example 26, N-(cyanomethyl)-2-(3,4-dichloro-5-methyl-1H-pyrrole-2-carboxamido)benzo[d]thiazole-6-carboxamide] | 16 ± 4 nM | > 64 µg/mL |  | > 64 µg/mL | > 64 µg/mL
11 | Cc1[nH]c(C(=O)Nc2nc3c(OCc4ccccc4)cc(C(=O)NCC#N)cc3s2)c(Cl)c1Cl [Example 27, 4-(benzyloxy)-N-(cyanomethyl)-2-(3,4-dichloro-5-methyl-1H-pyrrole-2-carboxamido)benzo[d]thiazole-6-carboxamide] | 5.4 ± 2 nM | 4 µg/mL (≈ 7.78 µM) |  | 16 µg/mL (≈ 31.1 µM) | > 64 µg/mL
12 | Cc1[nH]c(C(=O)Nc2nc3c(OCc4ccccc4)cc(C(N)=O)cc3s2)c(Cl)c1Cl [Example 28, 4-(benzyloxy)-2-(3,4-dichloro-5-methyl-1H-pyrrole-2-carboxamido)benzo[d]thiazole-6-carboxamide] | 11 ± 2 nM | > 64 µg/mL |  | > 64 µg/mL | > 64 µg/mL
13 | Cc1[nH]c(C(=O)Nc2nc3c(OCc4ccccc4)cc(-c4nnn[nH]4)cc3s2)c(Cl)c1Cl [Example 29, N-(4-(benzyloxy)-6-(1H-tetrazol-5-yl)benzo[d]thiazol-2-yl)-3,4-dichloro-5-methyl-1H-pyrrole-2-carboxamide] |  | 4 µg/mL (≈ 7.99 µM) |  | 0.125 µg/mL (≈ 0.25 µM) | > 64 µg/mL
14 | COC(=O)c1cc(N2CC[C@H](NC(=O)OC(C)(C)C)C2)c2nc(NC(=O)c3[nH]c(C)c(Cl)c3Cl)sc2c1 [Example 33, methyl (S)-4-(3-((tert-butoxycarbonyl)amino)pyrrolidin-1-yl)-2-(3,4-dichloro-5-methyl-1H-pyrrole-2-carboxamido)benzo[d]thiazole-6-carboxylate] | > 10000 nM | ≥ 32 µg/mL |  | ≥ 32 µg/mL | ≥ 32 µg/mL
15 | COC(=O)c1cc(N2CC[C@H](N)C2)c2nc(NC(=O)c3[nH]c(C)c(Cl)c3Cl)sc2c1.Cl [Example 34, (S)-1-(2-(3,4-dichloro-5-methyl-1H-pyrrole-2-carboxamido)-6-(methoxycarbonyl)benzo[d]thiazol-4-yl)pyrrolidin-3-aminium chloride] | 48 ± 9 nM | ≥ 32 µg/mL |  | ≥ 32 µg/mL | ≥ 32 µg/mL
16 | Cc1[nH]c(C(=O)Nc2nc3c(N4CC[C@H](NC(=O)OC(C)(C)C)C4)cc(C(=O)O)cc3s2)c(Cl)c1Cl [Example 35, (S)-4-(3-((tert-butoxycarbonyl)amino)pyrrolidin-1-yl)-2-(3,4-dichloro-5-methyl-1H-pyrrole-2-carboxamido)benzo[d]thiazole-6-carboxylic acid] | < 5 nM | 0.25 µg/mL (≈ 0.451 µM) |  | 0.0312 µg/mL (≈ 0.0564 µM) | ≥ 32 µg/mL
17 | Cc1[nH]c(C(=O)Nc2nc3c(N4CC[C@H](N)C4)cc(C(=O)O)cc3s2)c(Cl)c1Cl.Cl [Example 36, (S)-1-(6-carboxy-2-(3,4-dichloro-5-methyl-1H-pyrrole-2-carboxamido)benzo[d]thiazol-4-yl)pyrrolidin-3-aminium chloride] | < 5 nM | 4 µg/mL |  | 0.5 µg/mL | ≥ 32 µg/mL
18 | O=C(O)c1cc(OCc2cc(=O)c(O)c[nH]2)c2nc(NC(=O)c3cc(Br)c(Br)[nH]3)sc2c1 [Example 38, 2-(4,5-dibromo-1H-pyrrole-2-carboxamido)-4-((5-hydroxy-4-oxo-1,4-dihydropyridin-2-yl)methoxy)benzo[d]thiazole-6-carboxylic acid] |  | > 64 µg/mL |  | > 64 µg/mL | > 64 µg/mL
19 | O=C(OCc1cc(=O)c(O)co1)c1ccc2nc(NC(=O)c3cc(Br)c(Br)[nH]3)sc2c1 [Example 39, (5-hydroxy-4-oxo-4H-pyran-2-yl)methyl 2-(4,5-dibromo-1H-pyrrole-2-carboxamido)benzo[d]thiazole-6-carboxylate] | 1400 ± 20 nM | > 64 µg/mL | > 64 µg/mL |  | > 64 µg/mL
20 | O=C(OCc1cc(=O)c(O)c[nH]1)c1ccc2nc(NC(=O)c3cc(Br)c(Br)[nH]3)sc2c1 [Example 40, (5-hydroxy-4-oxo-1,4-dihydropyridin-2-yl)methyl 2-(4,5-dibromo-1H-pyrrole-2-carboxamido)benzo[d]thiazole-6-carboxylate] | 1700 ± 360 nM | > 64 µg/mL | > 64 µg/mL |  | > 64 µg/mL
21 | Cc1[nH]c(C(=O)N(c2nc3ccc(C(=O)O)cc3s2)C(C)C)c(Cl)c1Cl [Example 41, 2-(3,4-dichloro-N-isopropyl-5-methyl-1H-pyrrole-2-carboxamido)benzo[d]thiazole-6-carboxylic acid] | 320 ± 70 nM | 32 µg/mL (≈ 77.6 µM) |  | 32 µg/mL (≈ 77.6 µM) | ≥ 32 µg/mL
22 | Cc1[nH]c(C(=O)N(c2nc3ccc(C(=O)O)cc3s2)C2CC2)c(Cl)c1Cl [Example 42, 2-(3,4-dichloro-N-cyclopropyl-5-methyl-1H-pyrrole-2-carboxamido)benzo[d]thiazole-6-carboxylic acid] | 24 ± 1 nM | 2 µg/mL (≈ 4.87 µM) |  | 0.25 µg/mL (≈ 0.609 µM) | > 64 µg/mL
23 | CCN(C(=O)c1[nH]c(C)c(Cl)c1Cl)c1nc2ccc(C(=O)O)cc2s1 [Example 43, 2-(3,4-dichloro-N-ethyl-5-methyl-1H-pyrrole-2-carboxamido)benzo[d]thiazole-6-carboxylic acid] | 7.2 ± 2 nM | 0.13 µg/mL (≈ 0.326 µM) |  | 0.13 µg/mL (≈ 0.326 µM) | 32 µg/mL (≈ 80.3 µM)
24 | Cc1[nH]c(C(=O)Nc2nc3ccc(C(=O)O)cc3s2)c(Cl)c1Br [Example 45, 2-(4-bromo-3-chloro-5-methyl-1H-pyrrole-2-carboxamido) benzo[d]thiazole-6-carboxylic acid] | < 5 nM | 0.13 µg/mL (≈ 0.314 µM) |  | 0.0625 µg/mL (≈ 0.151 µM) | > 64 µg/mL
